We go through 7 compounds from patent publication US11480583B2, “Method for the diagnosis and treatment of essential primary hypertension” (Universiteit Maastricht, priority 2020, dated 2022).

Entries after “also recorded” stand apart in the source; their conditions may differ.

Test [1] has as its system femoral arteries of aged NOX5 KI and WT mice. Briefly: Wire myograph, relaxing responses of isolated femoral arteries. Set-up: species or system mouse. As to conditions: for Relaxation induced by BAY 60-2770, WT versus KI / Endothelium-independent relaxation induced by PAPA/NO, WT versus KI: femoral arteries, 0.01-10 μM; for Reversal of impaired Ach-induced relaxation by antioxidant: femoral arteries of aged KI mice contracted with 10 μM phenylephrine, Ach 10 μM. The method, then:
After mice were sacrificed, thoracic aortae, femoral and saphenous arteries were dissected free from perivascular adipose tissue and mounted in a wire myograph (DMT, Aarhus, DK). The organ chamber was filled with Krebs-Ringer bicarbonate-buffered salt solution (KRB) that was continuously aerated with 95% O2/5% CO2 and maintained at 37° C. Passive stretch procedure was performed to mimic the physiologically relevant internal lumen diameter as previously described. Arterial contractile and relaxing responses were recorded at lumen diameters corresponding to a distending pressure of 100 mmHg in thoracic aorta and femoral artery and at 90% of this diameter in the resistance-sized saphenous artery. […] The diameter tension relationships were constructed according to the law of Laplace for a cylindrical tube: P=T/R (with P for transmural pressure, T for wall tension and R for the lumen radius of the tube). Consequently, wall stiffness can be determined equally by recording 1) changes in tension in response to imposed changes in radius (wire myography) or 2) changes in radius in response to changes in transmural pressure (pressure myography). Here we used the former approach because it has a higher throughput than the latter. Stress-strain relationships and even better “incremental elastic (Young's) modulus” (which require additional recording of wall thickness) only come into play to discriminate between structural and material property contributions to changes in arterial stiffness. Part of the isolated thoracic aorta was studied in the absence and part in the continuous presence of 10 μM indomethacin to inhibit production of prostaglandins that can act as endothelium-derived vasoactive factors in this vessel. The vessels were tested for their contractile response to 40 mM K+, concentration-response curves of phenylephrine (0.01 to 100 μM) and endothelin-1 (1-256 nM) followed by acetylcholine (Ach) (0.01 to 100 μM), PAPA/NO (0.01-10 μM) or Bay60-2770 (0.01-10 μM)-induced relaxations. The wall tension of the vessel segment was continuously recorded with LabChart Pro (ADInstruments, Oxford, UK).

Test [2] relates to thoracic aortae of aged NOX5 KI and WT mice. In words: Wire myograph, responses of isolated thoracic aortae. Set-up: species or system mouse. The following applies: for Endothelium-independent relaxation induced by PAPA/NO, WT versus KI: thoracic aortae with/without indomethacin, 0.01-10 μM. Here is the method:
(§1) After mice were sacrificed, thoracic aortae, femoral and saphenous arteries were dissected free from perivascular adipose tissue and mounted in a wire myograph (DMT, Aarhus, DK). The organ chamber was filled with Krebs-Ringer bicarbonate-buffered salt solution (KRB) that was continuously aerated with 95% O2/5% CO2 and maintained at 37° C. Passive stretch procedure was performed to mimic the physiologically relevant internal lumen diameter as previously described. Arterial contractile and relaxing responses were recorded at lumen diameters corresponding to a distending pressure of 100 mmHg in thoracic aorta and femoral artery and at 90% of this diameter in the resistance-sized saphenous artery. […] The diameter tension relationships were constructed according to the law of Laplace for a cylindrical tube: P=T/R (with P for transmural pressure, T for wall tension and R for the lumen radius of the tube). Consequently, wall stiffness can be determined equally by recording 1) changes in tension in response to imposed changes in radius (wire myography) or 2) changes in radius in response to changes in transmural pressure (pressure myography). Here we used the former approach because it has a higher throughput than the latter. Stress-strain relationships and even better “incremental elastic (Young's) modulus” (which require additional recording of wall thickness) only come into play to discriminate between structural and material property contributions to changes in arterial stiffness. Part of the isolated thoracic aorta was studied in the absence and part in the continuous presence of 10 μM indomethacin to inhibit production of prostaglandins that can act as endothelium-derived vasoactive factors in this vessel. […] The wall tension of the vessel segment was continuously recorded with LabChart Pro (ADInstruments, Oxford, UK).

Test [3] concerns saphenous arteries of aged NOX5 KI and WT mice. Briefly: Wire myograph, relaxing responses of isolated saphenous arteries. Set-up: species or system mouse. As to conditions: for Endothelium-independent relaxation induced by PAPA/NO, WT versus KI: saphenous arteries, 0.01-10 μM. Here is the method: as §1
Test [4] concerns femoral arteries of aged NOX5 KI mice. In words: Superoxide formation, DHE staining of femoral artery cryo-sections. Set-up: species or system mouse. As to conditions: pre-treatment with 500 μM L-NAME for 30 min at 37° C. Here is the method: Superoxide was measured in femoral arteries using the florescence dye dihydroethidium (DHE) (Thermo Scientific Technology, The Netherlands). Frozen femoral arteries cryo-sections were fixated in 4% paraformaldehyde (PFA) in PBS and then incubated with 2 μM DHE for 30 minutes at 37° C. After three washing steps with PBS, slices were incubated with DAPI (Sigma-Aldrich, The Netherlands) […] for 10 min. Sections were washed in PBS and then mounted using a Dako Fluorescence Mounting Medium ([…], Agilent Technologies). Immunofluorescent signals were viewed using a Leica DM13000 B fluorescence microscope. Some arteries were pre-treated with 500 μM L-NAME for 30 min at 37° C. before performing the DHE staining.

The subject of the next test is elevated blood pressure. The following applies: by improving endothelial function; cited from earlier work.
The subject of test [5] is elevated blood pressure induced by NOS uncoupling. The following applies: cited from earlier work.

For `O=C(O)CCCCN(CCc1cc(F)ccc1OCc1ccc(-c2ccc(C(F)(F)F)cc2)cc1)Cc1ccc(C(=O)O)cc1` [BAY 60-2770], the “Relaxation induced by BAY 60-2770, WT versus KI” value in test [1] is “Neither the PAPA/NO (FIGS. 13 A-C) nor the BAY 60-2770 response (FIG. 11 D) differed between WT and KI mice”; in test [1] (listed as Bay60-2770), “did not differ”.

With `COC(=O)[C@@H](N)CCCNC(=N)N[N+](=O)[O-]` [L-NAME], the “Effect of L-NAME on Ach-induced relaxation” value is recorded as “reversed” in test [1] (femoral arteries of aged KI and WT mice contracted with 256 nM endothelin-1, 100 μM L-NAME); “reversed” in test [2] (thoracic aortae of aged KI and WT mice contracted with 256 nM endothelin-1, 100 μM L-NAME); “did not modify the relaxing effects of Ach” in test [3] (saphenous arteries of aged KI and WT mice contracted with endothelin-1, 100 μM L-NAME). For the same compound, in test [4], the “Superoxide formation (DHE staining), increase in KI versus WT” value is recorded as “inhibited”.

With `CC(=O)N[C@@H](CS)C(=O)O` [N-acetylcysteine], the “Reversal of impaired Ach-induced relaxation by antioxidant” value in test [1] (10 μM N-acetylcysteine) is “not reversed”.

With `CCCN(CCCN)/[N+]([O-])=N/O` [PAPA/NO], the “Endothelium-independent relaxation induced by PAPA/NO, WT versus KI” value is “Neither the PAPA/NO (FIGS. 13 A-C) nor the BAY 60-2770 response (FIG. 11 D) differed between WT and KI mice” in test [1]; “did not differ” in test [1] (listed as PAPA NO); “Neither the PAPA/NO (FIGS. 13 A-C) nor the BAY 60-2770 response (FIG. 11 D) differed between WT and KI mice” in test [2]; “did not differ” in test [2] (listed as PAPA NO); “Neither the PAPA/NO (FIGS. 13 A-C) nor the BAY 60-2770 response (FIG. 11 D) differed between WT and KI mice” in test [3]; “did not differ” in test [3] (listed as PAPA NO).

For the compound `Nc1nc2ncc(CNc3ccc(C(=O)N[C@@H](CCC(=O)O)C(=O)O)cc3)nc2c(=O)[nH]1` [folic acid], the “Reduction of elevated blood pressure, clinical” value in the test on elevated blood pressure is “clinically effective to reduce elevated blood pressure”.

As for `C[C@H](O)C(=O)C1=Nc2c(nc(N)[nH]c2=O)NC1` [sepiapterin], the “Ach-induced relaxation after pre-treatment with sepiapterin” value in test [1] (femoral arteries of aged KI mice pre-contracted with phenylephrine, sepiapterin 100 μM, compared with WT) was “improved relaxation in KI; also recorded: greatly improved and became indistinguishable from those in WT”. Also, the “Blood pressure lowering, preclinical” value in test [5] is “lower elevated blood pressure induced by NOS uncoupling”.

For `CC1(C)CC(O)CC(C)(C)N1[O]` [tempol], the “Reversal of impaired Ach-induced relaxation by antioxidant” value in test [1] (100 μM tempol) was “not reversed”.
